Measurements from patent US20070060620A1, “Use of RAR retinoid agonists to increase sperm count and sperm mobility in males” (priority 2005, published 2007).

Columns and labels:
[1] = system: sperm count and sperm motility; settings: oral retinoids used for psoriasis or acne; cited from earlier work
[2] = phase 2 studies in patients with psoriasis and acne: systemic side-effect profile; assay type: in vivo, human; settings: compared with acitretin/etretinate and isotretinoin
[3] = plasma levels and half-life after clinical dosing with tazarotene; assay type: in vivo
Excerpt: Thus, tazarotene and other RAR-specific retinoids are used in the method of the present invention to help with male infertility that is due to low sperm counts and/or low sperm motility. Furthermore, retinoids such as tazarotene may be used in any situation in which couples are trying to conceive, where a boost to sperm production/motility could bring about an increase in the chances that a female could become pregnant. As a practical matter, since retinoids at doses likely to be effective in these circumstances are highly teratogenic, an unintended effect might arise from the transfer of the retinoid to a female in the ejaculate of the male. […] Thus, in a period of 3 days, levels of retinoid in plasma (and also in seminal fluid) would be less than 2%, and after about one week would be less than 0.01% of the original levels. Clinical dosing with tazarotene (eg at 3-6 mg) provide levels of tazarotenic acid (the major metabolite of tazarotene) in plasma of about 75-150 ng/mL study. Thus, in 3 days, plasma levels would be expected to drop to about 2-3 ng/mL (endogenous levels of retinoid agonists such as tretinoin, isotretinoin and 4-oxo-13-cis retinoic acid may easily total over 6 ng/mL). Sperm count and motility are likely to remain elevated for some time, since sperm maturation occurs over a period of 72-74 days.

Row | Structure (SMILES) | effect on sperm count and sperm motility [1] | systemic side-effect profile [2] | levels of retinoid in plasma (and also in seminal fluid) relative to the original levels ([3]; after about one week of washout) | half-life ([3]; human, plasma, read-out: effective half-life in plasma) [h] | levels of retinoid in plasma (and also in seminal fluid) relative to the original levels ([3]; in a period of 3 days of washout)
1 | CC1=C(/C=C/C(C)=C/C=C/C(C)=C\C(=O)O)C(C)(C)CCC1 [isotretinoin] | increase in sperm count and sperm motility | – | – | – | –
2 | COc1cc(C)c(/C=C/C(C)=C/C=C/C(C)=C/C(=O)O)c(C)c1C [acitretin] | increase in sperm count and sperm motility | – | – | – | –
3 | CCOC(=O)/C=C(C)/C=C/C=C(C)/C=C/c1c(C)cc(OC)c(C)c1C [etretinate] | increase in sperm count and sperm motility | – | – | – | –
4 | CCOC(=O)c1ccc(C#Cc2ccc3c(c2)C(C)(C)CCS3)nc1 [tazarotene] | – | far better than those of acitretin/etretinate and isotretinoin | less than 0.01% | 7 to 12 | less than 2%
